Blank lines part the entries; values can stand above or below the compound they belong to.
Tests used:
[1] = target: T1, human recombinant MLK3 protein (Homo sapiens, UniProt Q16584); test: MLK3 kinase activity assay (Eurofins, gamma-33P-ATP, filtermat scintillation counting); format: biochemical; conditions: human recombinant MLK3, 120 minutes at room temperature
T1 construct: purchased Eurofins
Protocol: (§1) Compounds 1 to 119 synthesized in Example 1 according to the present disclosure were assayed for inhibitory activity against MLK3/LRRK2 enzymes and anticancer activity against HepG2/HS746T cancer cells, and the results are summarized in Table 1, below.
(§2) Inhibitory activity against MLK3 and LRRK2 enzymes was evaluated in Eurofins. In brief, human recombinant MLK3 protein was mixed with the compounds in a reaction buffer (8 mM MOPS (pH 7.0), 0.2 mM EDTA, 0.33 mg/mL myelin basic protein, 5 mM DTT) to which a mixture of 10 mM magnesium acetate and gamma-33P-ATP was then added before incubation at room temperature for 120 minutes. Afterward, the reaction was terminated with 0.5% phosphoric acid. Ten μL of the total mixture was spotted onto a P30 filtermat which was then washed four times for 4 minutes with 0.425% phosphoric acid and once in methanol prior to scintillation counting. Values for the activity of MLK3 were expressed as % of the control. For the activity of LRRK2, human recombinant LRRK2 protein was mixed with the compounds in a reaction buffer (50 mM HEPES (pH 8.0), 0.2 mM EDTA, 0.01% Brij-35, 1% (w/v) BSA, 5 mM DTT, 250 uM substrate peptide RLGRDKYKTLRQIRQ) and then reacted with a mixture of 10 mM magnesium acetate and gamma-33P-ATP at room temperature for 40 minutes. Afterward, the reaction was terminated with 0.5% phosphoric acid. Ten μL of the total mixture was spotted onto a P30 filtermat which was then washed four times for 4 minutes with 0.425% phosphoric acid and once in methanol prior to scintillation counting. Values for the activity of LRRK2 were expressed as % of the control.

[2] = target: T2, human recombinant LRRK2 protein (Homo sapiens, UniProt Q5S007); test: LRRK2 kinase activity assay (Eurofins, gamma-33P-ATP, filtermat scintillation counting); format: biochemical; conditions: human recombinant LRRK2, 40 minutes at room temperature
T2 construct: purchased Eurofins
T2 sequence (Q5S007 whole entry): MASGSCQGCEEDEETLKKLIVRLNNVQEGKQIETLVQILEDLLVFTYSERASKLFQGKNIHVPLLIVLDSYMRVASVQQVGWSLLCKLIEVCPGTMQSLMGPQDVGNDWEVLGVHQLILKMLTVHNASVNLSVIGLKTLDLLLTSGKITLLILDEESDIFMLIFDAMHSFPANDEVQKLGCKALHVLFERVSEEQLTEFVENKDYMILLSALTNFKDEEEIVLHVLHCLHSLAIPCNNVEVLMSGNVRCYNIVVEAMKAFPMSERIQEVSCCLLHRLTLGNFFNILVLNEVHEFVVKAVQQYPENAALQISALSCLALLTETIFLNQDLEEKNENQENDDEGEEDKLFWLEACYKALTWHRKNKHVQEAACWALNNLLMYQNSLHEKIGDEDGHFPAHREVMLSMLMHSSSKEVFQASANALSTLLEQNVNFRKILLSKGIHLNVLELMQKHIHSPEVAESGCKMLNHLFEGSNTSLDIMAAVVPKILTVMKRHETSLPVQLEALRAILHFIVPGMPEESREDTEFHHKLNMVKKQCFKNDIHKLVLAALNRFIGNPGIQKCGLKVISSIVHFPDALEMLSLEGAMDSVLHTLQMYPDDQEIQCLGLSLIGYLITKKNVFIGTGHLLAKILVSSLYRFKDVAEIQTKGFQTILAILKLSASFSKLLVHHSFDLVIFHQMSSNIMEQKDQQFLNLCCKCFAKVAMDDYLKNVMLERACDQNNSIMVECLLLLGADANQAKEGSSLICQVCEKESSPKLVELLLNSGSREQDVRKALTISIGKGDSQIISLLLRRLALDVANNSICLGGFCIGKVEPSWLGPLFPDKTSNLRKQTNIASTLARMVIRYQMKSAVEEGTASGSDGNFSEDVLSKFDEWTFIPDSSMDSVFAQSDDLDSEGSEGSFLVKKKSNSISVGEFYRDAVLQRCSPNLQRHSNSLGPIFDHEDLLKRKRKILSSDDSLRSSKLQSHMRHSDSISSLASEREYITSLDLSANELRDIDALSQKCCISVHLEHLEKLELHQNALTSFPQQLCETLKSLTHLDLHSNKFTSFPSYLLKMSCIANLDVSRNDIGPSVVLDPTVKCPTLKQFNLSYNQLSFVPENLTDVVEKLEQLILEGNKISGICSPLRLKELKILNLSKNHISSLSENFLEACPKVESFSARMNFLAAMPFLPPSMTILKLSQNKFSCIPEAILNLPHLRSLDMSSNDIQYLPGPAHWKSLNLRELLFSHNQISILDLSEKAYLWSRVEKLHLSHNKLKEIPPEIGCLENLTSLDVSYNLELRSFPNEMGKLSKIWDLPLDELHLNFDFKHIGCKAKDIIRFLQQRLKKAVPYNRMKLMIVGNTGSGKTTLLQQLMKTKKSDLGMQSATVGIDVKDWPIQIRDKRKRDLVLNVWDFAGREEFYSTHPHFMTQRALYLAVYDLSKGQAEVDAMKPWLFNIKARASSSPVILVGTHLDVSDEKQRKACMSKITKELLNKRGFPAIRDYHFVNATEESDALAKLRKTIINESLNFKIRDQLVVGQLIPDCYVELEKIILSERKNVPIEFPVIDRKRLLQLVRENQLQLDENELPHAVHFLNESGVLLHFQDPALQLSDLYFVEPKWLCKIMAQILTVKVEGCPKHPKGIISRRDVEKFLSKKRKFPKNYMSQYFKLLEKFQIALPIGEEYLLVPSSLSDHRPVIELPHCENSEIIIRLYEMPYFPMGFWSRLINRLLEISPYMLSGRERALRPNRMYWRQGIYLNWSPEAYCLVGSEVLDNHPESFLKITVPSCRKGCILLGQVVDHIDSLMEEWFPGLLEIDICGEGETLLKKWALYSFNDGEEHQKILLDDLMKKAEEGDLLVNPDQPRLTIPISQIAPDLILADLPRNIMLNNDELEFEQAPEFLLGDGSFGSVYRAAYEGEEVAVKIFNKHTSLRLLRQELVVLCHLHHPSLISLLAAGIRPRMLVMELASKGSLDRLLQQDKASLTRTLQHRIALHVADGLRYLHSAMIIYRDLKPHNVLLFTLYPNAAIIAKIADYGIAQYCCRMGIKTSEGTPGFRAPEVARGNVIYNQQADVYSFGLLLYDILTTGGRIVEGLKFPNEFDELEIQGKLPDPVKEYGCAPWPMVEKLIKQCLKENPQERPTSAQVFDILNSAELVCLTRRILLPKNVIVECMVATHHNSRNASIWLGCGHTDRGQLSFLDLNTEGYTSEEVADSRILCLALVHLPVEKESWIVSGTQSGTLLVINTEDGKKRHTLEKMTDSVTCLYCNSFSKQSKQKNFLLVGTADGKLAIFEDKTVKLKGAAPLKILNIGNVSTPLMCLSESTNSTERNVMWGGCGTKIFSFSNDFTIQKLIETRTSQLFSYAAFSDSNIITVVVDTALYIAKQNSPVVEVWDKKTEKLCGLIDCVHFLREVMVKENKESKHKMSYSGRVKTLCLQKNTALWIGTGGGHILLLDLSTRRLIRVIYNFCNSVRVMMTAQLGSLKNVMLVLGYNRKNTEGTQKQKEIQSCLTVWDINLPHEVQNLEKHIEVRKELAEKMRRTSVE
Protocol: as §1, §2

HepG2 cancer cells = test: Anticancer activity, cell viability by CCK-8, HepG2; format: cell-based; conditions: HepG2, 10 μM, 72 hours
Protocol: (§3) Compounds 1 to 119 synthesized in Example 1 according to the present disclosure were assayed for inhibitory activity against MLK3/LRRK2 enzymes and anticancer activity against HepG2/H[…] cancer cells, and the results are summarized in Table 1, below. Assay for anticancer activity was conducted as follows. HepG2 and H[…] cancer cells were purchased from the Korean Cell Line Bank and cultured according to the instruction provided thereby. One hundred μL of a culture of the cells were seeded at a density of 4,000 cells/well into 96-well plates. After 24 hours, the cells were treated with the compounds for 72 hours. Then, cell viability was assayed using CCK-8 and expressed as % of the control.

HS746T cancer cells = test: Anticancer activity, cell viability by CCK-8, HS746T; format: cell-based; conditions: 72 hours
Protocol: as §3

T1 sequence (Q16584 whole entry): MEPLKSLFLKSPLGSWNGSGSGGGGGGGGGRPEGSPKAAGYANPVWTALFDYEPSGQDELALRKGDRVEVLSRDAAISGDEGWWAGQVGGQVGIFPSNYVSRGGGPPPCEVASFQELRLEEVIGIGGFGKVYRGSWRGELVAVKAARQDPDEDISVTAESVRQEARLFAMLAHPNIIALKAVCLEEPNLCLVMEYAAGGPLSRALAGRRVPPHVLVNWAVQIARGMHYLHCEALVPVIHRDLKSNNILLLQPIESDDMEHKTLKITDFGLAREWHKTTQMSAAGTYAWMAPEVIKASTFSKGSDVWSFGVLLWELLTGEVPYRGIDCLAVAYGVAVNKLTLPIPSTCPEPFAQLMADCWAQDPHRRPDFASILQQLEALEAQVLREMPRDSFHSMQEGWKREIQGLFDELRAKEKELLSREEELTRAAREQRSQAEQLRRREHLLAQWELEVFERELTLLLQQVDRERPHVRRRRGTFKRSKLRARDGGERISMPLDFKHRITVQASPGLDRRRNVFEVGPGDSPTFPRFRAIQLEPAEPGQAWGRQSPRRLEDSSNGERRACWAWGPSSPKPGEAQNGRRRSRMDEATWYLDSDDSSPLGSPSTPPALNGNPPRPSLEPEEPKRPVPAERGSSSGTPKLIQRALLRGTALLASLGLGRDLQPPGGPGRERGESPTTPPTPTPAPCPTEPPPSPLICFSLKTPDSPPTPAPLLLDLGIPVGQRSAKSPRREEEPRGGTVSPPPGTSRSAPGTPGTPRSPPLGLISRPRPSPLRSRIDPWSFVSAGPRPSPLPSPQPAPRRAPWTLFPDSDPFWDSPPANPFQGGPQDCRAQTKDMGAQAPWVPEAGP

IC50 [1]: 1 to 10 nM | IC50 [2]: 10 to 100 nM
SMILES: CP(C)(=O)c1ccccc1Nc1nc(Nc2ccc3[nH]nc(-c4cccc(O)c4)c3c2)ncc1Cl [compound 118, (2-((5-chloro-2-((3-(3-hydroxyphenyl)-1H-indazol-5-yl)amino)pyrimidin-4-yl)amino)phenyl)dimethylphosphine oxide]
Cell viability (% of Con. 10 μM) HepG2 (HepG2 cancer cells): 43 % of Con. | Cell viability (% of Con. 10 μM) HS746T (HS746T cancer cells): 5 % of Con.

IC50 [1]: 1 to 10 nM | IC50 [2]: 10 to 100 nM
SMILES: CP(C)(=O)c1ccccc1Nc1nc(Nc2ccc3[nH]nc(-c4ccc(C#N)cc4)c3c2)ncc1Cl [compound 105, 4-(5-((5-Chloro-4-((2-(dimethylphosphoryl)phenyl)amino)pyrimidin-2-yl)amino)-1H-indazol-3-yl)benzonitrile]
Cell viability (% of Con. 10 μM) HepG2 (HepG2 cancer cells): 55 % of Con. | Cell viability (% of Con. 10 μM) HS746T (HS746T cancer cells): 23 % of Con.

IC50 [1]: 1 to 10 nM | IC50 [2]: 1 to 10 nM
SMILES: CP(C)(=O)c1ccccc1Nc1nc(Nc2ccc3[nH]nc(-c4cccc([N+](=O)[O-])c4)c3c2)ncc1Cl [compound 97, (2-((5-Chloro-2-((3-(3-nitrophenyl)-1H-indazol-5-yl)amino)pyrimidin-4-yl)amino)phenyl)dimethylphosphine oxide]
Cell viability (% of Con. 10 μM) HepG2 (HepG2 cancer cells): 21 % of Con. | Cell viability (% of Con. 10 μM) HS746T (HS746T cancer cells): 11 % of Con.

IC50 [1]: 1 to 10 nM | IC50 [2]: 1 to 10 nM
SMILES: CP(C)(=O)c1ccccc1Nc1nc(Nc2ccc3[nH]nc(-c4ccc(F)c(Cl)c4)c3c2)ncc1Cl [compound 107, (2-((5-Chloro-2-((3-(3-chloro-4-fluorophenyl)-1H-indazol-5-yl)amino)pyrimidin-4-yl)amino)phenyl)dimethylphosphine oxide]
Cell viability (% of Con. 10 μM) HepG2 (HepG2 cancer cells): 63 % of Con. | Cell viability (% of Con. 10 μM) HS746T (HS746T cancer cells): 11 % of Con.

IC50 [1]: 1 to 10 nM | IC50 [2]: 10 to 100 nM
SMILES: CP(C)(=O)c1ccccc1Nc1nc(Nc2ccc3[nH]nc(-c4ccc(Cl)c(C(F)(F)F)c4)c3c2)ncc1Cl [compound 111, (2-((5-Chloro-2-((3-(4-chloro-3-(trifluoromethyl)phenyl)-1H-indazol-5-yl)amino)pyrimidin-4-yl)amino)phenyl)dimethylphosphine oxide]
Cell viability (% of Con. 10 μM) HepG2 (HepG2 cancer cells): 7 % of Con. | Cell viability (% of Con. 10 μM) HS746T (HS746T cancer cells): 7 % of Con.

IC50 [1]: 1 to 10 nM | IC50 [2]: 1 to 10 nM
SMILES: CP(C)(=O)c1ccccc1Nc1nc(Nc2ccc3[nH]nc(-c4ccncc4)c3c2)ncc1Cl [compound 104, (2-((5-Chloro-2-((3-(pyridin-4-yl)-1H-indazol-5-yl)amino)pyrimidin-4-yl)amino)phenyl)dimethylphosphine oxide]
Cell viability (% of Con. 10 μM) HepG2 (HepG2 cancer cells): 30 % of Con. | Cell viability (% of Con. 10 μM) HS746T (HS746T cancer cells): 11 % of Con.

The next lines start with the compound.

SMILES: Cc1nc2ccc(Nc3ncc(Cl)c(Nc4ccccc4P(C)(C)=O)n3)cc2s1 [compound 17, (2-((5-Chloro-2-((2-methylbenzo[d]thiazol-6-yl)amino)pyrimidin-4-yl)amino)phenyl)dimethylphosphine oxide]
IC50 [1]: 1 to 10 nM | IC50 [2]: 1 to 10 nM | Cell viability (% of Con. 10 μM) HepG2 (HepG2 cancer cells): 35 % of Con. | Cell viability (% of Con. 10 μM) HS746T (HS746T cancer cells): 17 % of Con.

SMILES: CP(C)(=O)c1ccccc1Nc1nc(Nc2ccc3c(c2)CNC3)ncc1Cl [compound 73, (2-((5-Chloro-2-(isoindolin-5-ylamino)pyrimidin-4-yl)amino)phenyl)dimethylphosphine oxide]
IC50 [1]: 1 to 10 nM | IC50 [2]: 1 to 10 nM | Cell viability (% of Con. 10 μM) HepG2 (HepG2 cancer cells): 19 % of Con. | Cell viability (% of Con. 10 μM) HS746T (HS746T cancer cells): 0.5 % of Con.

SMILES: CP(C)(=O)c1ccccc1Nc1nc(Nc2cccc3cc[nH]c23)ncc1Cl [compound 71, (2-((2-((1H-Indol-7-yl)amino)-5-chloropyrimidin-4-yl)amino)phenyl)dimethylphosphine oxide]
IC50 [1]: 10 to 100 nM | IC50 [2]: 1 to 10 nM | Cell viability (% of Con. 10 μM) HepG2 (HepG2 cancer cells): 63 % of Con. | Cell viability (% of Con. 10 μM) HS746T (HS746T cancer cells): 83 % of Con.

SMILES: CC1(C)CN(C(=O)C(F)(F)F)Cc2cc(Nc3ncc(Cl)c(Nc4ccccc4P(C)(C)=O)n3)ccc21 [compound 50, 1-(7-((5-Chloro-4-((2-(dimethylphosphoryl)phenyl)amino)pyrimidin-2-yl)amino)-4,4-dimethyl-3,4-dihydroisoquinolin-2(1H)-yl)-2,2,2-trifluoroethan-1-one]
IC50 [1]: 1 to 10 nM | IC50 [2]: 1 to 10 nM | Cell viability (% of Con. 10 μM) HepG2 (HepG2 cancer cells): 20 % of Con. | Cell viability (% of Con. 10 μM) HS746T (HS746T cancer cells): 2 % of Con.

SMILES: CP(C)(=O)c1ccccc1Nc1ncc(Cl)c(Nc2ccccc2P(C)(C)=O)n1 [compound 30, (((5-Chloropyrimidin-2,4-diyl)bis(azanediyl))bis(2,1-phenylene)) bis(dimethylphosphineoxide)]
IC50 [1]: > 1000 nM | IC50 [2]: > 1000 nM | Cell viability (% of Con. 10 μM) HepG2 (HepG2 cancer cells): 102 % of Con. | Cell viability (% of Con. 10 μM) HS746T (HS746T cancer cells): 85 % of Con.

SMILES: CC1(C)CNCc2cc(Nc3ncc(Cl)c(Nc4ccccc4P(C)(C)=O)n3)ccc21 [compound 52, (2-((5-Chloro-2-((4,4-dimethyl-1,2,3,4-tetrahydroisoquinolin-7-yl)amino)pyrimidin-4-yl)amino)phenyl)dimethylphosphine oxide]
IC50 [1]: 1 to 10 nM | IC50 [2]: 1 to 10 nM | Cell viability (% of Con. 10 μM) HepG2 (HepG2 cancer cells): 21 % of Con. | Cell viability (% of Con. 10 μM) HS746T (HS746T cancer cells): 1 % of Con.

SMILES: CP(C)(=O)c1ccccc1Nc1nc(Nc2ccncc2)ncc1Cl [compound 15, (2-((5-Chloro-2-(pyridin-4-ylamino)pyrimidin-4-yl)amino)phenyl) dimethylphosphine oxide]
IC50 [1]: > 1000 nM | IC50 [2]: > 1000 nM | Cell viability (% of Con. 10 μM) HepG2 (HepG2 cancer cells): 116 % of Con. | Cell viability (% of Con. 10 μM) HS746T (HS746T cancer cells): 110 % of Con.

SMILES: CC(C)n1cc(-c2n[nH]c3ccc(Nc4ncc(Cl)c(Nc5ccccc5P(C)(C)=O)n4)cc23)cn1 [compound 93, (2-((5-Chloro-2-((3-(1-isopropyl-1H-pyrazol-4-yl)-1H-indazol-5-yl)amino)pyrimidin-4-yl)amino)phenyl)dimethylphosphine oxide]
IC50 [1]: 1 to 10 nM | IC50 [2]: 1 to 10 nM | Cell viability (% of Con. 10 μM) HepG2 (HepG2 cancer cells): 42 % of Con. | Cell viability (% of Con. 10 μM) HS746T (HS746T cancer cells): 18 % of Con.

SMILES: CP(C)(=O)c1ccccc1Nc1nc(Nc2cnc3[nH]nc(-c4cccnc4F)c3c2)ncc1Cl [compound 98, (2-((5-Chloro-2-((3-(2-fluoropyridin-3-yl)-1H-pyrazolo[3,4-b]pyridin-5-yl)amino)pyrimidin-4-yl)amino)phenyl)dimethylphosphine oxide]
IC50 [1]: 1 to 10 nM | IC50 [2]: 1 to 10 nM | Cell viability (% of Con. 10 μM) HepG2 (HepG2 cancer cells): 27 % of Con. | Cell viability (% of Con. 10 μM) HS746T (HS746T cancer cells): 10 % of Con.

SMILES: CCCn1cc(-c2n[nH]c3ccc(Nc4ncc(Cl)c(Nc5ccccc5P(C)(C)=O)n4)cc23)cn1 [compound 95, (2-((5-Chloro-2-((3-(1-propyl-1H-pyrazol-4-yl)-1H-indazol-5-yl)amino)pyrimidin-4-yl)amino)phenyl)dimethylphosphine oxide]
IC50 [1]: 1 to 10 nM | IC50 [2]: 1 to 10 nM | Cell viability (% of Con. 10 μM) HepG2 (HepG2 cancer cells): 39 % of Con. | Cell viability (% of Con. 10 μM) HS746T (HS746T cancer cells): 19 % of Con.

SMILES: CP(C)(=O)c1ccccc1Nc1nc(Nc2ccc3[nH]ccc3c2)ncc1Cl [compound 65, (2-((2-((1H-Indol-5-yl)amino)-5-chloropyrimidin-4-yl)amino)phenyl)dimethylphosphine oxide]
IC50 [1]: 1 to 10 nM | IC50 [2]: 1 to 10 nM | Cell viability (% of Con. 10 μM) HepG2 (HepG2 cancer cells): 20 % of Con. | Cell viability (% of Con. 10 μM) HS746T (HS746T cancer cells): 23 % of Con.

SMILES: CC1c2cc(Nc3ncc(Cl)c(Nc4ccccc4P(C)(C)=O)n3)ccc2CCN1C(=O)C(F)(F)F (centres unmarked) [compound 54, 1-(7-((5-Chloro-4-((2-(dimethylphosphoryl)phenyl)amino)pyrimidin-2-yl)amino)-1-methyl-3,4-dihydroisoquinolin-2(1H)-yl)-2,2,2-trifluoroethan-1-one]
IC50 [1]: 1 to 10 nM | IC50 [2]: 1 to 10 nM | Cell viability (% of Con. 10 μM) HepG2 (HepG2 cancer cells): 17 % of Con. | Cell viability (% of Con. 10 μM) HS746T (HS746T cancer cells): 4 % of Con.

SMILES: CP(C)(=O)c1ccccc1Nc1nc(Nc2cnc3ccccc3c2)ncc1Cl [compound 19, (2-((5-Chloro-2-(quinolin-3-ylamino)pyrimidin-4-yl)amino)phenyl) dimethylphosphine oxide]
IC50 [1]: 10 to 100 nM | IC50 [2]: 10 to 100 nM | Cell viability (% of Con. 10 μM) HepG2 (HepG2 cancer cells): 34 % of Con. | Cell viability (% of Con. 10 μM) HS746T (HS746T cancer cells): 25 % of Con.

SMILES: CP(C)(=O)c1ccccc1Nc1nc(Nc2ccc3[nH]ncc3c2)ncc1Cl [compound 66, (2-((2-((1H-Indazol-5-yl)amino)-5-chloropyrimidin-4-yl)amino)phenyl)dimethylphosphine oxide]
IC50 [1]: 1 to 10 nM | IC50 [2]: 1 to 10 nM | Cell viability (% of Con. 10 μM) HepG2 (HepG2 cancer cells): 31 % of Con. | Cell viability (% of Con. 10 μM) HS746T (HS746T cancer cells): 22 % of Con.
